“And” between values parts separate entries of the source, which are not always exact repeats. Identical values can stand only once.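 Five compound concentrations were applied to cells in 96-well plates for 48 hours; endpoints were derived by simple linear interpolation of the resulting dose-response curve. GI50 = concentration required for 50% inhibition of growth. At the TGI there is no net growth.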
tested on: COLO 205 colon; assay: NCI-60 cell line screen, 48 h

| Compound | GI50 [µM] | TGI [µM] |
| --- | --- | --- |
| CC1=CC(=Nc2ccc(N(CCCl)CCCl)cc2)C=C(C)C1=O | 1.49 | 4.67 |
| CN(C)S(=O)(=O)Nc1nnc(S(N)(=O)=O)s1 |  | > 100 |

tested on: OVCAR-8 ovarian; assay: NCI-60 cell line screen, 48 h

| Compound | GI50 | TGI |
| --- | --- | --- |
| OCc1c[nH]c2ccccc12 | 29.8 µM | > 100 µM |
| CCN(CC)CCOc1ccc(/C(=C(\Cl)c2ccccc2)c2ccccc2)cc1 | 7 µM and 4.65 µM | 14.3 µM and 18.6 µM |
| CCN1CCC(O)(C(C(=O)O)c2ccccc2)CC1 (centres undefined) |  | > 100 µM |

tested on: SNB-75 CNS; assay: NCI-60 cell line screen, 48 h

| Compound | GI50 | TGI |
| --- | --- | --- |
| OCc1c[nH]c2ccccc12 | 24.2 µM | > 100 µM |
| CCN(CC)CCOc1ccc(/C(=C(\Cl)c2ccccc2)c2ccccc2)cc1 | 2.19 µM and 1.39 µM | 8.5 µM and 4.95 µM |
| CCN1CCC(O)(C(C(=O)O)c2ccccc2)CC1 (centres undefined) |  | > 100 µM |
| CC1=CC(=Nc2ccc(N(CCCl)CCCl)cc2)C=C(C)C1=O | 1 µM | 7.87 µM |
| CN(C)S(=O)(=O)Nc1nnc(S(N)(=O)=O)s1 |  | > 100 µM |

tested on: CAKI-1 renal; assay: NCI-60 cell line screen, 48 h

| Compound | GI50 | TGI |
| --- | --- | --- |
| OCc1c[nH]c2ccccc12 | 15.8 µM | 52.8 µM |
| CCN(CC)CCOc1ccc(/C(=C(\Cl)c2ccccc2)c2ccccc2)cc1 | 5.47 µM and 1.66 µM | 12.3 µM and 5.48 µM |
| CCN1CCC(O)(C(C(=O)O)c2ccccc2)CC1 (centres undefined) |  | > 100 µM |
| CC1=CC(=Nc2ccc(N(CCCl)CCCl)cc2)C=C(C)C1=O | 0.116 µM | 1.08 µM |
| CN(C)S(=O)(=O)Nc1nnc(S(N)(=O)=O)s1 |  | > 100 µM |

tested on: HT29 colon; assay: NCI-60 cell line screen, 48 h

| Compound | GI50 | TGI |
| --- | --- | --- |
| OCc1c[nH]c2ccccc12 | 24 µM | 54.6 µM |
| CCN(CC)CCOc1ccc(/C(=C(\Cl)c2ccccc2)c2ccccc2)cc1 | 0.944 µM and 0.353 µM | 2.21 µM and 1.38 µM |
| CCN1CCC(O)(C(C(=O)O)c2ccccc2)CC1 (centres undefined) |  | > 100 µM |
| CC1=CC(=Nc2ccc(N(CCCl)CCCl)cc2)C=C(C)C1=O | 1.11 µM | 4.59 µM |
| CN(C)S(=O)(=O)Nc1nnc(S(N)(=O)=O)s1 |  | > 100 µM |

tested on: RPMI-8226 leukemia; assay: NCI-60 cell line screen, 48 h

| Compound | GI50 [µM] | TGI [µM] |
| --- | --- | --- |
| OCc1c[nH]c2ccccc12 | 20.6 | 64.2 |
| CCN(CC)CCOc1ccc(/C(=C(\Cl)c2ccccc2)c2ccccc2)cc1 | 2.17 | 6.98 |
| CCN1CCC(O)(C(C(=O)O)c2ccccc2)CC1 (centres undefined) |  | > 100 |
| CC1=CC(=Nc2ccc(N(CCCl)CCCl)cc2)C=C(C)C1=O | 1.14 | 9.29 |
| CN(C)S(=O)(=O)Nc1nnc(S(N)(=O)=O)s1 |  | > 100 |

tested on: M14 melanoma; assay: NCI-60 cell line screen, 48 h

| Compound | GI50 | TGI |
| --- | --- | --- |
| OCc1c[nH]c2ccccc12 | 23.4 µM | 54.1 µM |
| CCN(CC)CCOc1ccc(/C(=C(\Cl)c2ccccc2)c2ccccc2)cc1 | 1.03 µM and 1.73 µM | 2.04 µM and 3.44 µM |
| CCN1CCC(O)(C(C(=O)O)c2ccccc2)CC1 (centres undefined) |  | > 100 µM |
| CC1=CC(=Nc2ccc(N(CCCl)CCCl)cc2)C=C(C)C1=O | 0.603 µM | 3.98 µM |
| CN(C)S(=O)(=O)Nc1nnc(S(N)(=O)=O)s1 |  | > 100 µM |

tested on: NCI/ADR-RES ovarian; assay: NCI-60 cell line screen, 48 h

| Compound | GI50 | TGI |
| --- | --- | --- |
| OCc1c[nH]c2ccccc12 | 23.2 µM | 71.4 µM |
| CCN(CC)CCOc1ccc(/C(=C(\Cl)c2ccccc2)c2ccccc2)cc1 | 5.56 µM and 3.34 µM | 12.2 µM and 14.4 µM |
| CCN1CCC(O)(C(C(=O)O)c2ccccc2)CC1 (centres undefined) |  | > 100 µM |
| CC1=CC(=Nc2ccc(N(CCCl)CCCl)cc2)C=C(C)C1=O | 1.09 µM | 10.1 µM |
| CN(C)S(=O)(=O)Nc1nnc(S(N)(=O)=O)s1 |  | > 100 µM |

tested on: UACC-62 melanoma; assay: NCI-60 cell line screen, 48 h

| Compound | GI50 | TGI |
| --- | --- | --- |
| OCc1c[nH]c2ccccc12 | 15.3 µM | 35.8 µM |
| CCN(CC)CCOc1ccc(/C(=C(\Cl)c2ccccc2)c2ccccc2)cc1 | 1.04 µM and 2.15 µM | 2.33 µM and 4.88 µM |
| CCN1CCC(O)(C(C(=O)O)c2ccccc2)CC1 (centres undefined) |  | > 100 µM |
| CC1=CC(=Nc2ccc(N(CCCl)CCCl)cc2)C=C(C)C1=O | 1.12 µM | 6.47 µM |
| CN(C)S(=O)(=O)Nc1nnc(S(N)(=O)=O)s1 |  | > 100 µM |

tested on: T-47D breast; assay: NCI-60 cell line screen, 48 h

| Compound | GI50 | TGI |
| --- | --- | --- |
| OCc1c[nH]c2ccccc12 | 16 µM | > 100 µM |
| CCN(CC)CCOc1ccc(/C(=C(\Cl)c2ccccc2)c2ccccc2)cc1 | 1.51 µM and 1.73 µM | 9.55 µM and 12.9 µM |
| CCN1CCC(O)(C(C(=O)O)c2ccccc2)CC1 (centres undefined) |  | > 100 µM |
| CC1=CC(=Nc2ccc(N(CCCl)CCCl)cc2)C=C(C)C1=O | 0.64 µM | 3.22 µM |
| CN(C)S(=O)(=O)Nc1nnc(S(N)(=O)=O)s1 |  | > 100 µM |

tested on: MOLT-4 leukemia; assay: NCI-60 cell line screen, 48 h

| Compound | GI50 | TGI |
| --- | --- | --- |
| OCc1c[nH]c2ccccc12 | 39.1 µM | > 100 µM |
| CCN(CC)CCOc1ccc(/C(=C(\Cl)c2ccccc2)c2ccccc2)cc1 | 2.98 µM and 3.71 µM | 11.8 µM and 13.1 µM |
| CC1=CC(=Nc2ccc(N(CCCl)CCCl)cc2)C=C(C)C1=O | 0.377 µM | > 25.6 µM |
| CN(C)S(=O)(=O)Nc1nnc(S(N)(=O)=O)s1 |  | > 100 µM |

tested on: SK-OV-3 ovarian; assay: NCI-60 cell line screen, 48 h

| Compound | GI50 | TGI |
| --- | --- | --- |
| OCc1c[nH]c2ccccc12 | 26.3 µM | 98.9 µM |
| CCN(CC)CCOc1ccc(/C(=C(\Cl)c2ccccc2)c2ccccc2)cc1 | 5.38 µM and 4.67 µM | 11.5 µM and 17.2 µM |
| CCN1CCC(O)(C(C(=O)O)c2ccccc2)CC1 (centres undefined) |  | > 100 µM |
| CC1=CC(=Nc2ccc(N(CCCl)CCCl)cc2)C=C(C)C1=O | 3.21 µM | 23 µM |
| CN(C)S(=O)(=O)Nc1nnc(S(N)(=O)=O)s1 |  | > 100 µM |

tested on: UACC-257 melanoma; assay: NCI-60 cell line screen, 48 h

| Compound | GI50 | TGI |
| --- | --- | --- |
| OCc1c[nH]c2ccccc12 | 22.9 µM | 74 µM |
| CCN(CC)CCOc1ccc(/C(=C(\Cl)c2ccccc2)c2ccccc2)cc1 | 0.989 µM and 1.97 µM | 2.09 µM and 4.04 µM |
| CCN1CCC(O)(C(C(=O)O)c2ccccc2)CC1 (centres undefined) |  | > 100 µM |
| CC1=CC(=Nc2ccc(N(CCCl)CCCl)cc2)C=C(C)C1=O | 1.49 µM | 5.12 µM |

tested on: MDA-MB-231 breast; assay: NCI-60 cell line screen, 48 h

| Compound | GI50 | TGI |
| --- | --- | --- |
| OCc1c[nH]c2ccccc12 | 14.7 µM | 47.7 µM |
| CCN(CC)CCOc1ccc(/C(=C(\Cl)c2ccccc2)c2ccccc2)cc1 | 1.37 µM and 2.13 µM | 5.16 µM and 4.49 µM |
| CCN1CCC(O)(C(C(=O)O)c2ccccc2)CC1 (centres undefined) |  | > 100 µM |
| CC1=CC(=Nc2ccc(N(CCCl)CCCl)cc2)C=C(C)C1=O | 2.85 µM | 9.32 µM |
| CN(C)S(=O)(=O)Nc1nnc(S(N)(=O)=O)s1 |  | > 100 µM |

tested on: HOP-62 NSCLC; assay: NCI-60 cell line screen, 48 h

| Compound | GI50 | TGI |
| --- | --- | --- |
| OCc1c[nH]c2ccccc12 | 14.4 µM | 36.7 µM |
| CCN(CC)CCOc1ccc(/C(=C(\Cl)c2ccccc2)c2ccccc2)cc1 | 1.38 µM and 1.94 µM | 4.76 µM and 4.16 µM |
| CCN1CCC(O)(C(C(=O)O)c2ccccc2)CC1 (centres undefined) |  | > 100 µM |
| CC1=CC(=Nc2ccc(N(CCCl)CCCl)cc2)C=C(C)C1=O | 1.1 µM | 7.37 µM |

From PubChem BioAssay (NCI)
